Measurements published in patent US5776929A, “Benzodiazepine derivative” (Shionogi & Co., Ltd., priority 1993, dated 1998).
“Also recorded” adds a separate entry of the source.

What was measured:
Assay type in all cases: in vivo, rat (male Sprague Dawley)
[1] = system: aspirin-induced gastric mucosa damage; experiment: Aspirin-induced gastric mucosa damage following continuous administration; details: for lesion index (mm^2): 10 mg/kg p.o., 7 days, aspirin 200 mg/kg after two-day interruption; for aspirin-induced gastric mucosa damage (in words): continuous administration, two-day interruption
Procedure: (§1) Male Sprague Dawley rats weighing from 240 to 280 g were used as experimental animals.
(§2) As H2 B, famotidine, and as gastrin receptor antagonist, L-365,260 described in Example 281 of Japanese Patent Publication (KOKAI) 63-238069 (EP 167,919; EP 284,256; U.S. Pat. No. 4,820,834; U.S. Pat. No. 5,004,741)), were used. […] For administration, a suspension of 10 mg famotidine or L-365,260 in 1 ml vehicle (0.5% methyl cellulose solution) was prepared. The combined formulation is a mixture of an equal amount of each suspension.
(§3) A previously determined dose of each test compound (1.0 ml or 3.0 ml/kg) was charged in a syringe and administered orally to a rat directly into gaster using a stainless probe needle (.phi.1.2×L 80 mm) equipped to the syringe.
(§4) B. Continuous administration test
(§5) (A) A group consists of animals that received vehicle (0.5% methyl cellulose solution, 1 ml/kg).
(§6) (B) A group consists of animals that received famotidine (a suspension of 10 mg famotidine in 1 ml 0.5% methyl cellulose) continuously at a dose of 10 or 30 mg/kg/day.
(§7) (C) A group consists of animals that received L-365,260 continuously at a dose of 10 mg/kg/day.
(§8) (D) A group consists of animals that received a combined formulation of famotidine and L-365,260 at a dose of 10 mg/kg/day for each compound.
(3) Aspirin-induced gastric mucosa damage following a continuous administration of famotidine
After two-day-interruption following a continuous administration of famotidine, aspirin (200 mg/kg) was administered to rats orally. Seven hours later, gaster was extracted under ether anesthetization and subjected to formalin treatment with 1% formalin solution. The length (mm) of gastric mucosa damage appearing around fundic glands was then measured. Lesion index was calculated by adding all the measurements. Rats had been starved for 24 hr before aspirin administration (ad libitum for water).

[2] = system: gastric damage due to stress induced by restricted water-immersion; experiment: Gastric damage due to stress induced by restricted water-immersion (single administration); details: for lesion index (% to control): 10 rats
Procedure: as §1, §2, §3
(1) Gastric damage due to stress induced by restricted water-immersion (single administration test)
Twenty four hour starved (ad libitum for water) male Sprague Dawley rats (270-290 g) were orally administered with a test compound and, 30 min later, were loaded with stress in the following manner. Rats were placed in a stress cage (Natsume Seisakusyo) and immersed in water tank at 23° C. upto the level of pectoral processus xiphoideus [Takagi et al, Chem. Pharm. Bull (Tokyo) 12, 465-472 (1964)]. Seven hours later, animals were withdrawn from the water tank and killed with ether. The gaster was extracted and 1% formalin solution (13 ml) was injected in it. […] The gaster was observed under anatomic microscope (x10) and longer diameter (mm) of each damages (bleeding erosion) appearing around fundic glands was measured.

[3] = system: gastric acid secretion; experiment: Basic gastric acid secretion after interruption following continuous administration (pylorus ligation); details: for basic gastric acid secretion (in words): P<0.05
Procedure: as §1, §2, §3, §4, §5, §6, §7, §8
(2) Basic gastric acid secretion after interruption following the continuous administration of famotidine
To a rat bred normally was administered continuously famotidine at a dose of 10 or 30 mg/kg/day for a week. After the final administration, the basis gastric acid secretion (total acid excretion) was determined according to the pylorus ligation method (4-hour-method) [Shay, H. et al., Gastroenterology, 5: 43-61 (1945)]. The determination was carried out following the final administration, […], […]
Thus, rats were subjected to laparotomy under ether anesthetization and pylorus was ligated. Four hours later, gaster was extracted under ether anaesthetization and the accumulated gastric juice was collected. After centrifugation (3000 rpm, 10 min), pH and acidity of gastric juice was determined. The acidity was measured upto pH 7.0 with 0.1N NaOH. The total acid secretion (μEq/4 hr) was calculated by multiplying acidity by the volume of juice for each animal.

[4] = day 2 after 7-day treatment, 10 mg/kg/day (Table 6)
[5] = day 3 after 7-day treatment, 10 mg/kg/day (Table 6)
[6] = immediately after 7 days, 10 mg/kg/day
[7] = immediately after 7 days, 30 mg/kg/day

NC(N)=Nc1nc(CSCCC(N)=NS(N)(=O)=O)cs1 [Famotidine, famotidine]
lesion index (mm^2) [1]: 67.0 ± 14.2 mm^2
aspirin-induced gastric mucosa damage (in words) [1]: the condition deteriorated significantly; also recorded: the ulcer index got worse significantly on the 2nd day after interruption
lesion index (% to control) ([2]; 1 mg/kg p.o.): 33.4 ± 5.5 % to control
inhibition of appearance of stress gastric damage (in words) ([2]; 3 mg/kg): inhibited the appearance significantly
lesion index (% to control) ([2]; 3 mg/kg p.o.): 33.4 ± 5.5 % to control
basic gastric acid secretion (in words) ([3]; 10 mg/kg/day, after a 48-hour interruption): increased significantly
basic gastric acid secretion (in words) ([3]; 10 mg/kg/day, immediately after interrupting): inhibited significantly
basic gastric acid secretion (in words) ([3]; 30 mg/kg/day, after a 4-day interruption): increased significantly
basic gastric acid secretion (in words) ([3]; 30 mg/kg/day, immediately after interrupting): inhibited significantly
increase in the basic acid secretion, acid rebound (in words) ([3]; 2nd day after interruption following continuous administration): An increase in the basic acid secretion (acid rebound) was observed
inhibition (%) of total acid secretion ([3]; 24 hr after 7-day treatment, 10 mg/kg/day): -38.3%
total acid secretion ([3]; 24 hr after 7-day treatment, 10 mg/kg/day (Table 4)): 821.0 ± 214.2 μEq/4 hr
inhibition (%) of total acid secretion ([3]; 48 hr after 7-day treatment, 10 mg/kg/day): -105.7%
total acid secretion ([3]; 48 hr after 7-day treatment, 10 mg/kg/day (Table 4)): 948.9 ± 187.5 μEq/4 hr
total acid secretion [3, 4]: 788.4 ± 217.7 μEq/4 hr
total acid secretion [3, 5]: 682.4 ± 132.6 μEq/4 hr
inhibition (%) of total acid secretion ([3]; day 3 after 7-day treatment, 30 mg/kg/day): -45.3%
inhibition (%) of total acid secretion ([3]; day 4 after 7-day treatment, 30 mg/kg/day): -44.2%
inhibition (%) of total acid secretion [3, 6]: 61.6%
total acid secretion [3, 6]: 151.8 ± 29.8 μEg/49 hr
inhibition (%) of total acid secretion [3, 7]: 59.9%
total acid secretion [3, 7]: 158.4 ± 54.9 μEg/49 hr

Cc1cccc(NC(=O)N[C@@H]2N=C(c3ccccc3)c3ccccc3N(C)C2=O)c1 [L-365,260]
lesion index (mm^2) [1]: 43.2 ± 13.7 mm^2
aspirin-induced gastric mucosa damage (in words) [1]: the condition seemed to have tendency to deteriorate, but it is not significant
lesion index (% to control) ([2]; 1 mg/kg p.o.): 130.4 ± 20.6 % to control
lesion index (% to control) ([2]; 3 mg/kg p.o.): 84.7 ± 17.4 % to control
inhibition of appearance of stress gastric damage (in words) ([2]; at either dose (1 or 3 mg/kg)): does not inhibit the appearance of stress gastric damage
acid excretion after continuous administration alone (in words) ([3]; alone for a week): did not differed from those obtained in control group
total acid secretion [3, 4]: 631.4 ± 147.9 μEq/4 hr
total acid secretion [3, 5]: 681.0 ± 142.9 μEq/4 hr
